From article PMC6295246 (Clinical cancer research : an official journal of the …, 2018)

Experiments:
[1] = system: relapsed and refractory neuroblastoma; conditions: phase 1, with irinotecan and temozolomide; cited from earlier work
[2] = system: relapsed or refractory neuroblastoma; assay: Best objective response; format: in vivo, human; conditions: pooled Phase 1/2/OS
[3] = system: relapsed or refractory neuroblastoma; assay: Progression-free survival; format: in vivo, human; conditions: pooled Phase 1/2/OS
[4] = Alisertib plasma pharmacokinetics; format: in vivo, human; conditions: pooled phase 1, phase 2 and OS cohorts
[5] = Alisertib Day 5 trough > median, N=21
[6] = Alisertib Day 5 trough ≤ median, N=21
[7] = Alisertib exposure > median, N=21
[8] = Alisertib exposure ≤ median, N=21

In the case of COc1cc(Nc2ncc3c(n2)-c2ccc(Cl)cc2C(c2c(F)cccc2OC)=NC3)ccc1C(=O)O [alisertib], the “estimated progression-free survival (PFS) rate at 2 years” value [1] is given as 52%, the response rate [1] is given as 31.8% and the “Objective Response” value ([2]; > 2 Prior regimens, N=17) is given as 24%. The “Objective Response” value ([2]; AURKA Codon 31 heterozygote, N=12) was 25%, the “Objective Response” value ([2]; AURKA Codon 31 wild type, N=27) was 19% and the “Objective Response” value ([2]; AURKA Codon 57 wild type, N=27) was 19%. For the same compound, the “Objective Response” value ([2]; Age < 8 years, N=28) was 18%, the “Objective Response” value ([2]; Age ≥ 4 years, N=47) was 26% and the “Objective Response” value ([2]; Age ≥ 8 years, N=26) was 27%. For the same compound, the “Objective Response” value ([2]; Alisertib Cmax > median, N=21) was 19%, the “Objective Response” value ([2]; Alisertib Cmax ≤ median, N=21) was 24% and the “Objective Response” value [2, 5] was 24%. For the same compound, the “Objective Response” value [2, 6] was 19%, the “Objective Response” value [2, 7] was 19% and the “Objective Response” value [2, 8] was 24%. For the same compound, the “Objective Response” value ([2]; Aurora A protein +, N=12) was 17%, the “Objective Response” value ([2]; Aurora A protein −, N=18) was 22% and the “Objective Response” value ([2]; Lin28B protein +, N=17) was 12%. For the same compound, the “Objective Response” value ([2]; MYCN non-amplified, N=33) was 27%, the “Objective Response” value ([2]; No prior irinotecan, N=36) was 28% and the “Objective Response” value ([2]; No prior temozolomide, N=37) was 27%. For the same compound, the “Objective Response” value ([2]; Prior temozolomide, N=17) was 12%, the “Objective Response” value ([2]; UGT1A1 genotype 6 / 6, N=17) was 35% and the “Objective Response” value ([2]; UGT1A1 genotype 6 / 7, N=17) was 6%. The “Objective Response” value ([2]; UGT1A1 genotype 7 / 7, N=5) was 20%, the “Objective Response” value ([2]; ≤ 2 Prior regimens, N=37) was 22% and the “1-Yr PFS” value ([3]; > 2 Prior regimens, N=17) was 32%. For the same compound, the “1-Yr PFS” value ([3]; AURKA Codon 31 wild type, N=27) was 32%, the “1-Yr PFS” value ([3]; AURKA Codon 57 heterozygote, N=13) was 43% and the “1-Yr PFS” value ([3]; Age ≥ 4 years, N=47) was 42%. The “1-Yr PFS” value ([3]; Age ≥ 8 years, N=26) was 47%, the “1-Yr PFS” value ([3]; Alisertib Cmax > median, N=21) was 28% and the “1-Yr PFS” value ([3]; Alisertib Cmax ≤ median, N=21) was 55%. The “1-Yr PFS” value [3, 5] was 45%, the “1-Yr PFS” value [3, 6] was 33% and the “1-Yr PFS” value [3, 7] was 41%. For the same compound, the “1-Yr PFS” value [3, 8] was 38%, the “1-Yr PFS” value ([3]; Lin 28B protein −, N=13) was 34% and the “1-Yr PFS” value ([3]; MYCN amplified or Myc/Mycn +, N=18) was 12%. For the same compound, the “1-Yr PFS” value ([3]; MYCN non-amplified, N=33) was 47%, the “1-Yr PFS” value ([3]; No prior irinotecan, N=36) was 43% and the “1-Yr PFS” value ([3]; No prior temozolomide, N=37) was 41%. For the same compound, the “1-Yr PFS” value ([3]; Prior temozolomide, N=17) was 32%, the “1-Yr PFS” value ([3]; UGT1A1 genotype 6 / 6, N=17) was 57% and the “1-Yr PFS” value ([3]; UGT1A1 genotype 6 / 7, N=17) was 26%. The “1-Yr PFS” value ([3]; UGT1A1 genotype 7 / 7, N=5) was 40%, the “1-Yr PFS” value ([3]; ≤ 2 Prior regimens, N=37) was 42% and the “alisertib Day 5 trough in the first cycle, median” value [4] was 0.46 µM.
